# What was measured:
# [1] = Solubility of CMT-3 in aqueous solutions (statement); assay type: physicochemical
# [2] = system: IL-1β; settings: leucocytes isolated from patients within 24 h of the onset of direct ARDS; cited from earlier work
structure (smiles),measurement,setting,value
"NC(=O)C1=C(O)CC2CC3Cc4cccc(O)c4C(=O)C3=C(O)[C@]2(O)C1=O (some centres unmarked) [CMT-3, 6-demethyl-6-deoxy-4-de(dimethylamino)tetracycline]",Solubility in aqueous solutions,[1],barely dissolved in aqueous solutions
same,IL-1β production in alveolar leucocytes,[2],significantly suppressed
